Measurements from patent EP4541797A1, “CAMPTOTHECIN DERIVATIVE, METHOD FOR PREPARING SAME, AND USE THEREOF” (Hangzhou Adcoris Biopharma Co., Ltd, priority 2022, dated 2024).
Like-named read-outs stand apart in the source and are kept apart here.

Key:
[1] = system: OE33 cells; assay: Inhibitory activity on cancer cell growth (CCK-8, 72 h), OE33 cells; format: cell-based; details: human esophageal cancer cells OE33, 72 h incubation
Experimental: (§1) Human esophageal cancer cells OE33, human breast adenocarcinoma cells SK-BR-3 and human gastric cancer cells NCI-N87 were cultured in RPMI1640 (Cellmax) supplemented with 10% fetal bovine serum (Cellmax) respectively. Cells in the exponential growth phase were diluted to a concentration of 1×10^5cells/mL by culture medium and added to 96-well cell culture plates at 100µL per well, then incubated overnight in a 37°C incubator with 5% CO2. On the following day, the test compounds and control compounds were diluted to concentrations of 10000 nM, 2000 nM, 400 nM, 80 nM, 16 nM, 3.2 nM, 0.64 nM, and 0.13 nM by culture medium and added to the 96-well cell culture plates at 2µL per well, with three replicate wells for each concentration. Negative control and blank control groups without the addition of compounds were supplemented with 2µL of the dilution liquid per well. After the addition of the compounds, the plates were returned to the 37°C incubator with 5% CO2 to continue incubation for 72 h. After incubation, the cell culture plates were removed, and the culture medium was aspirated using a pipette. Then, 100µL of culture medium containing 10% CCK-8 was added to each well, and the plates were incubated at 37°C for 3 h. After incubation, the plates were removed, kept in the dark, and placed in ELISA plate. Absorbance was measured at 630nm as the reference wavelength and 450nm as the test wavelength. The IC50 values (Tables 1-3) were calculated using the four-parameter logistic regression method in GraphPad, based on the absorbance values. SN38 (7-ethyl-10-hydroxycamptothecin) and 10CPT (10-hydroxycamptothecin) were used as control compounds. For the IC50 values, wherein "++++" indicates an IC50 < 50 nM; "+++" indicates an IC50 between 50 nM and 100 nM; "++" indicates an IC50 between 100 nM and 500 nM; and "+" indicates an IC50 > 500 nM. Table 1: Inhibitory activity of compounds to inhibit the growth of OE33 cells

[2] = system: SK-BR-3 cells; assay: Inhibitory activity on cancer cell growth (CCK-8, 72 h), SK-BR-3 cells; format: cell-based; details: human breast adenocarcinoma cells SK-BR-3, 72 h incubation
Experimental: as §1

[3] = Homo sapiens, OE33, 72 h, read-out: IC50
[4] = Homo sapiens, SK-BR-3, 72 h, read-out: IC50

Row | SMILES | IC50 [1, 3] | IC50 ([1]; Homo sapiens, OE33, 72 h) | further results
1 | CC[C@@]1(O)C(=O)OCc2c1cc1n(c2=O)Cc2cc3c(CN4CCC(N)CC4)c(O)ccc3nc2-1 [Compound 1, 9-(1-(4-aminopiperidine))methyl-10-hydroxycamptothecin] | 100 to 500 nM |  | IC50 [2, 4]: 50 to 100 nM
2 | CC[C@@]1(O)C(=O)OCc2c1cc1n(c2=O)Cc2cc3c(CN4CCNCC4)c(O)ccc3nc2-1 [Compound 2, 9-(1-piperazine)methyl-10-hydroxycamptothecin] |  | 50 to 100 nM | IC50 ([2]; Homo sapiens, SK-BR-3, 72 h): 50 to 100 nM
3 | CC[C@@]1(O)C(=O)OCc2c1cc1n(c2=O)Cc2cc3c(CN4CCC(ON)CC4)c(O)ccc3nc2-1 [Compound 3, 9-(1-(4-aminoxypiperidine))methyl-10-hydroxycamptothecin] | 100 to 500 nM |  | 
4 | CC[C@@]1(O)C(=O)OCc2c1cc1n(c2=O)Cc2cc3c(CN4CCC(OC)CC4)c(O)ccc3nc2-1 [Compound 5, 9-(1-(4-methoxypiperidine))methyl-10-hydroxycamptothecin] | 50 to 100 nM |  | IC50 [2, 4]: > 500 nM
5 | CC[C@@]1(O)C(=O)OCc2c1cc1n(c2=O)Cc2cc3c(CN4CCN(C(=O)C5CC5)CC4)c(O)ccc3nc2-1 [Compound 6, 9-(1-(4-cyclopropylcarbonylpiperazine))methyl-10-hydroxycamptothecin] |  | 100 to 500 nM | IC50 ([2]; Homo sapiens, SK-BR-3, 72 h): 50 to 100 nM
6 | CC[C@@]1(O)C(=O)OCc2c1cc1n(c2=O)Cc2cc3c(CN4CCN(C(C)=O)CC4)c(O)ccc3nc2-1 [Compound 7, 9-(1-(4-acetylpiperazine))methyl-10-hydroxycamptothecin] | 50 to 100 nM |  | IC50 [2, 4]: 50 to 100 nM
7 | CC[C@@]1(O)C(=O)OCc2c1cc1n(c2=O)Cc2cc3c(CN4CCC(C(N)=O)CC4)c(O)ccc3nc2-1 [Compound 8] |  | 100 to 500 nM | IC50 ([2]; Homo sapiens, SK-BR-3, 72 h): 100 to 500 nM
8 | CC[C@@]1(O)C(=O)OCc2c1cc1n(c2=O)Cc2cc3cc(O)ccc3nc2-1 [Compound 10CPT, 10-hydroxycamptothecin, reference compound] |  | < 50 nM | IC50 ([2]; Homo sapiens, SK-BR-3, 72 h): < 50 nM
9 | CC[C@@]1(O)C(=O)OCc2c1cc1n(c2=O)Cc2cc3c(CN(C)CCCCN)c(O)ccc3nc2-1 [Compound 11, 9-(N-4-aminobutyl-N-methylamino)methyl-10-hydroxycamptothecin] |  | 100 to 500 nM | IC50 ([2]; Homo sapiens, SK-BR-3, 72 h): 100 to 500 nM
10 | CC[C@@]1(O)C(=O)OCc2c1cc1n(c2=O)Cc2cc3c(CN(C)CCO)c(O)ccc3nc2-1 [Compound 12, 9-(N-methylhydroxyethylamino)methyl-10-hydroxycamptothecin] |  | 100 to 500 nM | IC50 ([2]; Homo sapiens, SK-BR-3, 72 h): 100 to 500 nM
11 | CC[C@@]1(O)C(=O)OCc2c1cc1n(c2=O)Cc2cc3c(CN(C)CCN)c(O)ccc3nc2-1 [Compound 13, 9-(N-methyl-N-aminoethylamino)methyl-10-hydroxycamptothecin] | 100 to 500 nM |  | 
12 | CC[C@@]1(O)C(=O)OCc2c1cc1n(c2=O)Cc2cc3c(CN(C)C4CCOCC4)c(O)ccc3nc2-1 [Compound 14, 9-(N-methyltetrahydropyran-4-amine)methyl-10-hydroxycamptothecin] |  | 100 to 500 nM | 
13 | CC[C@@]1(O)C(=O)OCc2c1cc1n(c2=O)Cc2cc3c(CN(C)C4CCC(O)CC4)c(O)ccc3nc2-1 (stereo partly drawn) [Compound 16, 9-(N-methyl-trans-4-hydroxycyclohexylamine)methyl-10-hydroxycamptothecin] |  |  | IC50 ([1]; Homo sapiens, OE33, 72 h, numeric value or bound, read-out: IC50): 0.221 nM
14 | CC[C@@]1(O)C(=O)OCc2c1cc1n(c2=O)Cc2cc3c(CNN4CCOCC4)c(O)ccc3nc2-1 [Compound 18, 9-(morpholin-4-amine)methyl-10-hydroxycamptothecin] |  | 100 to 500 nM | IC50 ([2]; Homo sapiens, SK-BR-3, 72 h): 50 to 100 nM
15 | CCNCc1c(O)ccc2nc3c(cc12)Cn1c-3cc2c(c1=O)COC(=O)[C@]2(O)CC [Compound 20, 9-(ethylamine)methyl-10-hydroxycamptothecin] |  | 100 to 500 nM | 
16 | CC[C@@]1(O)C(=O)OCc2c1cc1n(c2=O)Cc2cc3c(CNC(C)C)c(O)ccc3nc2-1 [Compound 21, 9-(isopropylamine)methyl-10-hydroxycamptothecin] | 100 to 500 nM |  | IC50 [2, 4]: 100 to 500 nM
17 | CC[C@@]1(O)C(=O)OCc2c1cc1n(c2=O)Cc2cc3c4c(ccc3nc2-1)OCN(N1CCOCC1)C4 [Compound 22, 3-(N-morpholine)-1.3-oxazino[5,6][9,10]camptothecin] | 100 to 500 nM |  | 

Row | SMILES | IC50 [1, 3] | IC50 ([1]; Homo sapiens, OE33, 72 h) | further results
18 | CC[C@@]1(O)C(=O)OCc2c1cc1n(c2=O)Cc2cc3c(CN(C)NC(=O)OC(C)(C)C)c(O)ccc3nc2-1 [Compound 23, 9-(1-methyl-2-Boc-hydrazine)methyl-10-hydroxycamptothecin] | < 50 nM |  | 
19 | CC[C@@]1(O)C(=O)OCc2c1cc1n(c2=O)Cc2cc3c(CN(C)CCCN)c(O)ccc3nc2-1 [Compound 25, 9-(1-methyl-3-aminopropylamine)methyl-10-hydroxycamptothecin] | 100 to 500 nM |  | 
20 | CC[C@@]1(O)C(=O)OCc2c1cc1n(c2=O)Cc2cc3c(CNN4CCCCC4)c(O)ccc3nc2-1 [Compound 26, 9-(piperidine-1-amine)methyl-10-hydroxycamptothecin] | 100 to 500 nM |  | 
21 | CC[C@@]1(O)C(=O)OCc2c1cc1n(c2=O)Cc2cc3c(CN(C)CC4CCNCC4)c(O)ccc3nc2-1 [Compound 28, 9-(N-methyl(piperidine-4-methyl)amine)methyl-10-hydroxycamptothecin] |  | 100 to 500 nM | 
22 | CC[C@@]1(O)C(=O)OCc2c1cc1n(c2=O)Cc2cc3c(CN4CCC5(CCNCC5)CC4)c(O)ccc3nc2-1 [Compound 29, 9-(3-(undeca-5,5-spirocyclo-3,9-diazane))methyl-10-hydroxycamptothecin] | 100 to 500 nM |  | 
23 | CC[C@@]1(O)C(=O)OCc2c1cc1n(c2=O)Cc2cc3c(CNCCC4CCNCC4)c(O)ccc3nc2-1 [Compound 30, 9-(piperidine-4-ethylamine)methyl-10-hydroxycamptothecin] |  | 100 to 500 nM | 
24 | CC[C@@]1(O)C(=O)OCc2c1cc1n(c2=O)Cc2cc3c(CN4CCC[C@H]4C(=O)OC(C)(C)C)c(O)ccc3nc2-1 [Compound 31, 9-(L-prolinetert-butyl ester)methyl-10-hydroxycamptothecin] | 100 to 500 nM |  | 
25 | CC[C@@]1(O)C(=O)OCc2c1cc1n(c2=O)Cc2cc3c(CN4CCC(C(=O)OC)CC4)c(O)ccc3nc2-1 [Compound 33, 9-(1-piperidine-4-methylformate)methyl-10-hydroxycamptothecin] | 100 to 500 nM |  | 
26 | CC[C@@]1(O)C(=O)OCc2c1cc1n(c2=O)Cc2cc3c(CN4CCC(C(=O)O)CC4)c(O)ccc3nc2-1 [Compound 34, 9-(1-piperidine-4-carboxyllic acid)methyl-10-hydroxycamptothecin] | > 500 nM |  | 
27 | CC[C@@]1(O)C(=O)OCc2c1cc1n(c2=O)Cc2cc3c(CN[C@@H](C)C(=O)OC(C)(C)C)c(O)ccc3nc2-1 [Compound 35, 9-(L-alaninetert-butyl ester)methyl-10-hydroxycamptothecin] | 50 to 100 nM |  | 
28 | CC[C@@]1(O)C(=O)OCc2c1cc1n(c2=O)Cc2cc3c(CN(C)[C@@H](C)C(=O)O)c(O)ccc3nc2-1 [Compound 36, 9-(N-methyl-L-alanine)methyl-10-hydroxycamptothecin] | 100 to 500 nM |  | 
29 | CC[C@@]1(O)C(=O)OCc2c1cc1n(c2=O)Cc2cc3c(CNC4CCOCC4)c(O)ccc3nc2-1 [Compound 37, 9-(tetrahydropyran-4-amine)methyl-10-hydroxycamptothecin] | 100 to 500 nM |  | 
30 | CC[C@@]1(O)C(=O)OCc2c1cc1n(c2=O)Cc2cc3c4c(ccc3nc2-1)OCN(CC(F)(F)F)C4 [Compound 40, 3-(N-(2,2,2-trifluoroethyl))-1.3-oxazino[5,6][9,10]camptothecin] | 100 to 500 nM |  | 
31 | CC[C@@]1(O)C(=O)OCc2c1cc1n(c2=O)Cc2cc3c(CN[C@H]4CC[C@H](OC)CC4)c(O)ccc3nc2-1 [Compound 42, 9-(trans-4-methoxycyclohexylamine)methyl-10-hydroxycamptothecin] | 100 to 500 nM |  | 
32 | CC[C@@]1(O)C(=O)OCc2c1cc1n(c2=O)Cc2cc3c(CNCC4CCOCC4)c(O)ccc3nc2-1 [Compound 43, 9-(tetrahydropyran-4-methylamine)methyl-10-hydroxycamptothecin] |  | 100 to 500 nM | 
33 | CC[C@@]1(O)C(=O)OCc2c1cc1n(c2=O)Cc2cc3c(CN4CCN(C(=O)CO)CC4)c(O)ccc3nc2-1 [Compound 46, 9-(1-(4-hydroxyacetylpiperazine))methyl-10-hydroxycamptothecin] |  | 100 to 500 nM | 
34 | CCc1c2c(nc3ccc(O)cc13)-c1cc3c(c(=O)n1C2)COC(=O)[C@]3(O)CC [SN38, 7-ethyl-10-hydroxycamptothecin, reference compound] |  |  | IC50 ([1]; read-out: IC50): < 50 nM; IC50 ([2]; read-out: IC50): < 50 nM
